From ChEMBL document CHEMBL1201862, “PubChem BioAssay data set” (2004)
The source made the active and inactive calls.

How the values were obtained:
[1] = target: T1, Mannose-6-phosphate isomerase (Homo sapiens, UniProt P34949); assay: MPI enzyme activity inhibition – biochemical, fluorescence intensity, coupled assay, primary screen (AID 1209)
T1 sequence (P34949 whole entry): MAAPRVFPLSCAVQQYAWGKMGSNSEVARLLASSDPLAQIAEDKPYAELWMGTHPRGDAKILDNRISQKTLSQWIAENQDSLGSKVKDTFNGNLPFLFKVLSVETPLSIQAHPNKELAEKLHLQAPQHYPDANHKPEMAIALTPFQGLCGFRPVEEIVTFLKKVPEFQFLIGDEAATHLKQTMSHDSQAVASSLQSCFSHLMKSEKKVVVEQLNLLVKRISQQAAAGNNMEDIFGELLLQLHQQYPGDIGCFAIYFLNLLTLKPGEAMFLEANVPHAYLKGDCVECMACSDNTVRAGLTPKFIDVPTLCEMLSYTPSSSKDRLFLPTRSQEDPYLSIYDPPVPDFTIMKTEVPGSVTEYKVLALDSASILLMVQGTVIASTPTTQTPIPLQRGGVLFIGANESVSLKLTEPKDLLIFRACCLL

[2] = A cytotoxicity screen of small molecule inhibitors of the PhoP region in Salmonella typhi identified in the primary screen. [Related pubchem assays: 1850, 1864, 1985 ]; format: functional
[3] = target: T2, Peroxisome proliferator-activated receptor gamma/Nuclear receptor coactivator 2 (Homo sapiens, UniProt P37231); format: functional
[4] = target: T3, Peroxisome proliferator-activated receptor gamma/Nuclear receptor coactivator 1 (Homo sapiens, UniProt P37231); format: functional
[5] = target: T4, Peroxisome proliferator-activated receptor gamma/Nuclear receptor coactivator 3 (Homo sapiens, UniProt P37231); format: functional
[6] = HEK-293T viability loss after treatment – luminescence, T-cell screen hits, cytotoxicity control for TCR NF-kB inhibitor project, dose response (AID 489026); format: functional, cell-based;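 note: cells exposed to compound about 14 hours before the viability readout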
HEK293 [7] = assay: cells; conditions: Homo sapiens
[8] = Luminescence Cell-Based Dose Retest to Confirm Inhibitors of Cancer Stem Cells. [Related pubchem assays (depositor defined):AID2717, AID2721]; format: functional; conditions: Homo sapiens
HEK293 [9] = assay: cells; conditions: Homo sapiens; remark: listed apart in the source
[10] = viability loss in THP-1 monocytes – THP-1 cells, cytotoxicity control for Vif-APOBEC3G degradation inhibitor project, dose response (AID 1117359); format: functional; conditions: THP-1
Protein Tat = target: T5, Protein Tat (Human immunodeficiency virus type 1 group M subtype B (isolate HXB2)(HIV-1), UniProt P04608); format: functional;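 note: tat binding to TAR RNA read out by fluorescence polarization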
T5 sequence (P04608 whole entry): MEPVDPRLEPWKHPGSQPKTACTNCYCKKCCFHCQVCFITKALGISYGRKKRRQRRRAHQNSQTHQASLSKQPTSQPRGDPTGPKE

[11] = target: T4, Peroxisome proliferator-activated receptor gamma/Nuclear receptor coactivator 3; assay: (§1) TR-FRET dose response biochemical High Throughput Screening assay for agonists of the steroid receptor coactivator 3 (SRC-3) recruitment by the peroxisome proliferator-activated receptor gamma (PPAR gamma): non-selective agonists. [Related pubchem assays: 1301 (Confirmation screen.), 1048 (Primary screen.)]; format: functional
[12] = target: T3, Peroxisome proliferator-activated receptor gamma/Nuclear receptor coactivator 1; assay: as §1, with “1 (SRC-1)” for “3 (SRC-3)”, “assays (depositor defined):AID1300, AID1808, AID504735, AID631]” for “assays: 1301 (Confirmation screen.), 1048 (Primary screen.)]”; format: protein assay
[13] = target: T2, Peroxisome proliferator-activated receptor gamma/Nuclear receptor coactivator 2; assay: TR-FRET dose response biochemical High Throughput Screening assay for agonists of the steroid receptor coactivator 2 (SRC-2) recruitment by the peroxisome proliferator-activated receptor gamma (PPAR gamma): non-selective agonists. [Related pubchem assays: 1297, 1032 ]; format: functional
Estrogen receptor beta = Estrogen receptor beta (Homo sapiens, UniProt Q92731);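 note: recombinant ER-beta bound to coactivator SRC1 peptide in presence of estradiol agonist; inhibitors block coactivator peptide binding and lower the FRET signal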
[14] = alpha-synuclein stem-loop luciferase translation blockers – H4 neuroglioma cells, luminescence, confirmation (AID 1988); format: functional, cell-based
[15] = target: T6, High affinity choline transporter 1 (Homo sapiens, UniProt Q9GZV3); assay: human choline transporter blockers, potency – cell-based, 5-point CRC, membrane potential dye, dose response (AID 504840); format: functional
T6 sequence (Q9GZV3 whole entry): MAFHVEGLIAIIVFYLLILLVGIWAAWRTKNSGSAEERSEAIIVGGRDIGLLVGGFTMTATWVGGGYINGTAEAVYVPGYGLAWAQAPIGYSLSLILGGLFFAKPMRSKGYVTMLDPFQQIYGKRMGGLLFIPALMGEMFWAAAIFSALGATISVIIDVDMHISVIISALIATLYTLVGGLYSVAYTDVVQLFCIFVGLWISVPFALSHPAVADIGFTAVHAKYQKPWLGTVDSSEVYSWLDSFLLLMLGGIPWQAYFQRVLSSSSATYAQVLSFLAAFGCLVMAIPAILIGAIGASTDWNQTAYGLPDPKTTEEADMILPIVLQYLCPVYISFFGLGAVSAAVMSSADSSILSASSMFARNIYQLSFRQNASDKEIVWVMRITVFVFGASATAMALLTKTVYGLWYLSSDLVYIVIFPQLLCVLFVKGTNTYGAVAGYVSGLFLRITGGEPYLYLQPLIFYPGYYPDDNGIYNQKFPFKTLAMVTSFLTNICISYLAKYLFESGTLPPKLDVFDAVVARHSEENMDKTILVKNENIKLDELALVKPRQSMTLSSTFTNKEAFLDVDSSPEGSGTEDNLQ

[16] = luciferase reporter signal suppression in cells – H4 neuroglioma cells, luminescence, dose response (AID 1990); format: functional, cell-based
[17] = Luminescence Cell-Based Dose Confirmation HTS to Identify Inhibitors of Platelet Dense Granule Release. [Related pubchem assays: 1663 (Primary HTS), 1678 (Summary of Project)]; format: functional
[18] = target: Luciferin 4-monooxygenase (Photinus pyralis, UniProt P08659); assay: inhibition of purified Photinus pyralis luciferase – biochemical, luminescence, dose response (AID 1891)
[19] = Luminescence Cell-Based Dose Response HTS to Identify Inhibitors of 5'UTR Stem-Loop Driven Prion Protein mRNA Translation in H4 Neuroglioblastoma Cells. [Related pubchem assays: 1827 (Project Summary), 1813 (Primary HTS)]; format: functional
Cytochrome P450 1A2 = target: T7, Cytochrome P450 1A2 (Homo sapiens, UniProt P05177);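 note: PubChem cytochrome P450 panel assay, CYP1A2 panel member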
T7 sequence (P05177 whole entry): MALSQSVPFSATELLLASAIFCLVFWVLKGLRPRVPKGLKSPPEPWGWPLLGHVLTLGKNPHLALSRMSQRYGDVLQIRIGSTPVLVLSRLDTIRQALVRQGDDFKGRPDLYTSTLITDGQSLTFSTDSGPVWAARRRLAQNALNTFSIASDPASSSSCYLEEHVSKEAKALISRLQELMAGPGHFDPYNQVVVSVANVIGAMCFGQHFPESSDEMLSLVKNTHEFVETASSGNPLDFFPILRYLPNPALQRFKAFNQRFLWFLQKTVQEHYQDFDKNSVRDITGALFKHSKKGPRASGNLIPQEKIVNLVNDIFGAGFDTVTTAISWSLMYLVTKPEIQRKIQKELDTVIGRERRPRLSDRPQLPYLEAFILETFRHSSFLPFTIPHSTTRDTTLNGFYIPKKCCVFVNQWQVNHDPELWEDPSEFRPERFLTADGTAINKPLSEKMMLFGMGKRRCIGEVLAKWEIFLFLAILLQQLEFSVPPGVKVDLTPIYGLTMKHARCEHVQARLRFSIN

Cytochrome P450 2D6 = Cytochrome P450 2D6 (Homo sapiens, UniProt P10635);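 note: CYP2D6 member of a cytochrome P450 panel assay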
[20] = target: T8, Rac GTPase-activating protein 1 (Homo sapiens, UniProt Q9H0H5); assay: blockers of MgcRacGAP-driven Rac1 GTP hydrolysis – biochemical, ADP Hunter fluorescence, primary and confirmatory, confirmation (AID 624330); format: functional
T8 sequence (Q9H0H5 whole entry): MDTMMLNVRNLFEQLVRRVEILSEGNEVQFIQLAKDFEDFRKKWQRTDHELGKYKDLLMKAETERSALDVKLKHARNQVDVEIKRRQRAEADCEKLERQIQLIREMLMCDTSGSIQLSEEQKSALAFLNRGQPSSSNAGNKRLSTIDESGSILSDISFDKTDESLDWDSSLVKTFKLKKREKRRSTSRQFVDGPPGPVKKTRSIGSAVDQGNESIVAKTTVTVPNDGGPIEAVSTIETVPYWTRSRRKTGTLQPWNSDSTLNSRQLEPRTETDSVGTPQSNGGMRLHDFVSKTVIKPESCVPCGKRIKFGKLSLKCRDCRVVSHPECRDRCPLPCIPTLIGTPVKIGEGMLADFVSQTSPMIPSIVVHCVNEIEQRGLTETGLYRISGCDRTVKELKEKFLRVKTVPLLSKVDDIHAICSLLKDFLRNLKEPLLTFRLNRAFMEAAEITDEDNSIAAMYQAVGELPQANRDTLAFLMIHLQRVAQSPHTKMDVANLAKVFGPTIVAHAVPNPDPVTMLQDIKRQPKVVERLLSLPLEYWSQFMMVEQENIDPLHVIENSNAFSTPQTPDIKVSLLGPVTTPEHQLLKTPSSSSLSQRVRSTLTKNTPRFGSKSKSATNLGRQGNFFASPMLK

T3 sequence (P37231 whole entry): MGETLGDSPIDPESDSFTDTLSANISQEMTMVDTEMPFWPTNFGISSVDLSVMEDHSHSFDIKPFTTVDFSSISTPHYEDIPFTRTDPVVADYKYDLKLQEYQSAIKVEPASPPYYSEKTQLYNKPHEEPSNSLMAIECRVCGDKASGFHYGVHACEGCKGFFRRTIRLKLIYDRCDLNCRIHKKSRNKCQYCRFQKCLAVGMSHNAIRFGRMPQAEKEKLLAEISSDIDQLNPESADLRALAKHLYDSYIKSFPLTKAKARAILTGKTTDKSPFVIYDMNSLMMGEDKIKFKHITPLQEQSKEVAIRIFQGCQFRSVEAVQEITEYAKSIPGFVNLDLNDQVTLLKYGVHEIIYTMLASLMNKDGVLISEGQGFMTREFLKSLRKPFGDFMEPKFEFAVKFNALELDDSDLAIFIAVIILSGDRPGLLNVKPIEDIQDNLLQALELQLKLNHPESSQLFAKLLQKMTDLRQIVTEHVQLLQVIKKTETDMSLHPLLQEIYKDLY
T3 sequence (Q15788 whole entry, further chain): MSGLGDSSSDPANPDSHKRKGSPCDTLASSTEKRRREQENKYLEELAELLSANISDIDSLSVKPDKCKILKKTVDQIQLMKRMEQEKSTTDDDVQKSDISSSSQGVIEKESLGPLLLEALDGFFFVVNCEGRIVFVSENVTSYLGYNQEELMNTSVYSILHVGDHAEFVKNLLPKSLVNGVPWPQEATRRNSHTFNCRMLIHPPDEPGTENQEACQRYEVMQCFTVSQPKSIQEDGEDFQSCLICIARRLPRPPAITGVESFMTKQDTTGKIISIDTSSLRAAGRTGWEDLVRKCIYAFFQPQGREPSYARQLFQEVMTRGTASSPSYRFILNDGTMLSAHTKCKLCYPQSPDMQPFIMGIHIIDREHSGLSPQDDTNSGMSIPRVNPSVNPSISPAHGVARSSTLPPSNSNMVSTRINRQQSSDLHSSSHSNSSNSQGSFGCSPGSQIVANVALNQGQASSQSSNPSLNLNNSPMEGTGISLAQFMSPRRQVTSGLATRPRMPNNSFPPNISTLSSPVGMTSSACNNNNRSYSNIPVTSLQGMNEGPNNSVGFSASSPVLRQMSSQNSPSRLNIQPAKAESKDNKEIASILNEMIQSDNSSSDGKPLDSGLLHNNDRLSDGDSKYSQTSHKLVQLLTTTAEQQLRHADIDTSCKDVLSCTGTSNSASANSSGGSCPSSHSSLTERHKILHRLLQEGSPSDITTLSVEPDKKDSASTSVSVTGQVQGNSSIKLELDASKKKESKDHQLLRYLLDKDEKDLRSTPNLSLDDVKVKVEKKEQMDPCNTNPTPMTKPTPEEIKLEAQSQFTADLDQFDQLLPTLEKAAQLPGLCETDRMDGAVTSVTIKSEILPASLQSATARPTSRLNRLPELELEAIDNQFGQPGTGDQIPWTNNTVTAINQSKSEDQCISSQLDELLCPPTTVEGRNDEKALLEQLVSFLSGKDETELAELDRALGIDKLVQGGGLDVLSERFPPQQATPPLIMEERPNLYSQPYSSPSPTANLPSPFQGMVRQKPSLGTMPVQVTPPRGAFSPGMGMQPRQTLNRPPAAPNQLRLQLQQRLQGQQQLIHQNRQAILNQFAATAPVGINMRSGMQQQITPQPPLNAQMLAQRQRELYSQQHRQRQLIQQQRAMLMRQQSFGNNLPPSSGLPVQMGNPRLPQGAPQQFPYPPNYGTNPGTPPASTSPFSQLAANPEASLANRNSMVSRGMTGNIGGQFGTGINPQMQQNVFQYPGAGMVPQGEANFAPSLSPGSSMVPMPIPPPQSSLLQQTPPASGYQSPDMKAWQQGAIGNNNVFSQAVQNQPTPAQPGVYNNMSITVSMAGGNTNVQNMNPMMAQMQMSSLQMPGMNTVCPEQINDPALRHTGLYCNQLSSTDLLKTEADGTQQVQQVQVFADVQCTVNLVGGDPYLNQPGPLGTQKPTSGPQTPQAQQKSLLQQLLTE
T2 sequence (P37231 whole entry): as the sequence (P37231 whole entry) above
T2 sequence (Q15596 whole entry, further chain): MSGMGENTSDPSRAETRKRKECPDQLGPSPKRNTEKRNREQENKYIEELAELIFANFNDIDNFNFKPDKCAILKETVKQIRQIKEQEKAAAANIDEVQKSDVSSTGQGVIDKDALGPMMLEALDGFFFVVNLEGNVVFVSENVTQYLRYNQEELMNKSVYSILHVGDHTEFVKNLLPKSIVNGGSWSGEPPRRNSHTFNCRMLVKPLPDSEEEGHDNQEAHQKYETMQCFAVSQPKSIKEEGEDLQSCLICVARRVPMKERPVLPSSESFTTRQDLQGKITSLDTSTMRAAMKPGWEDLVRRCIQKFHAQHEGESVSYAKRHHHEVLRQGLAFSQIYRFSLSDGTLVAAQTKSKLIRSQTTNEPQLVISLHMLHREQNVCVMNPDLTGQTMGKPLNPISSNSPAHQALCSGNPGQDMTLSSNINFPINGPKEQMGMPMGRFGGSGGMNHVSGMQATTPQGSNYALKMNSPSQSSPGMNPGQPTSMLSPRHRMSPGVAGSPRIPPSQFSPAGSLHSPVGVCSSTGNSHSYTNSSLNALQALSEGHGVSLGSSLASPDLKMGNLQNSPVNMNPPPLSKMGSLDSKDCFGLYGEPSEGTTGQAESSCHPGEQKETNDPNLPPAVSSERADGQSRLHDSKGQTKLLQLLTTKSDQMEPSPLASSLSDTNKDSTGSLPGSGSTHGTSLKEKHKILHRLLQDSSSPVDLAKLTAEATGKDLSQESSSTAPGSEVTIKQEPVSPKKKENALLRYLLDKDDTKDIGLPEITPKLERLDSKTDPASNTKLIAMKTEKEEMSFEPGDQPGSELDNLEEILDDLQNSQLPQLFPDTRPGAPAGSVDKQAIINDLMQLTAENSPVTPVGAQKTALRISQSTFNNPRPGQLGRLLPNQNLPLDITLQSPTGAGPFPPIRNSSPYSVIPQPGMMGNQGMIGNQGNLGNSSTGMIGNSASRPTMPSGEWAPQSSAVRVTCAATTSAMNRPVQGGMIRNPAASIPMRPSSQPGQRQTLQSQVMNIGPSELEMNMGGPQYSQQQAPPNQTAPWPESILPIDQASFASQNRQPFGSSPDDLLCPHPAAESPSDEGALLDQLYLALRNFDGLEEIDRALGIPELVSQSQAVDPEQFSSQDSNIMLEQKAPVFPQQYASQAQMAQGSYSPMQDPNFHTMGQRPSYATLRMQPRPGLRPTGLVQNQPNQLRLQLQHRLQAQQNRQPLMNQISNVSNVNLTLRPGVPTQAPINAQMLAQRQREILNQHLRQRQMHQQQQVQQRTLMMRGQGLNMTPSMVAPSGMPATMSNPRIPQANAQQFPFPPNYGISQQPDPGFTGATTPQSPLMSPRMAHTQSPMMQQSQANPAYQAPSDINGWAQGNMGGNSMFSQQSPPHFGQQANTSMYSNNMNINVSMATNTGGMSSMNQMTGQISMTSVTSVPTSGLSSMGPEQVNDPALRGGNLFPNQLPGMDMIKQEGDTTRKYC
Estrogen receptor beta, sequence (Q92731 whole entry): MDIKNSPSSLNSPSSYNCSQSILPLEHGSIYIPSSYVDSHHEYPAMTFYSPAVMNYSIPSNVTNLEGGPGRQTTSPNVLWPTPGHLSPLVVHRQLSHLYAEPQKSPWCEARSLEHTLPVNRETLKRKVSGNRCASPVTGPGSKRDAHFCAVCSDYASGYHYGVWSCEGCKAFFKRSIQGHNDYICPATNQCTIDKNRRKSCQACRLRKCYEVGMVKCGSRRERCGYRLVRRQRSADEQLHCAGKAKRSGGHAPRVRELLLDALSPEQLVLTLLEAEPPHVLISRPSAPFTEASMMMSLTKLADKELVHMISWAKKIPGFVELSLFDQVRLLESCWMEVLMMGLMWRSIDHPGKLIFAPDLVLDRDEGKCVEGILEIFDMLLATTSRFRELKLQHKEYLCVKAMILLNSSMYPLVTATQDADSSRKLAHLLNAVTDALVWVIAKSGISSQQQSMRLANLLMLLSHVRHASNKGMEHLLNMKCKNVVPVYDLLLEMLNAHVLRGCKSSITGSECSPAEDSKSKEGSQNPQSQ
Cytochrome P450 2D6, sequence (P10635 whole entry): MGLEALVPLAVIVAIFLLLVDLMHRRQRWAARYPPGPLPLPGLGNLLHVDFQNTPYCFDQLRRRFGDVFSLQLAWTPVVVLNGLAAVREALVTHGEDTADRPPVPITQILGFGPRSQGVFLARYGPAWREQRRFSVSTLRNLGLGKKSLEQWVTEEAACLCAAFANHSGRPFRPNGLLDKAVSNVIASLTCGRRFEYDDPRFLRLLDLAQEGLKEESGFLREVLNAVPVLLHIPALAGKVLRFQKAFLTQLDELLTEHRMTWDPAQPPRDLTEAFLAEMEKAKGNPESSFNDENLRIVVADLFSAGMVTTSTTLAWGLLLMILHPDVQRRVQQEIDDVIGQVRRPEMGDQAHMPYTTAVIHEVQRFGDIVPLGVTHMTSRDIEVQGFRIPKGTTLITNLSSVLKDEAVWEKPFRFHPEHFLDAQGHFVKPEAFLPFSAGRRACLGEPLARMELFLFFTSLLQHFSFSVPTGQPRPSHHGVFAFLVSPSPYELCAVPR

SMILES: COc1ccccc1CSc1nc(-c2ccc([N+](=O)[O-])cc2)c[nH]1
- IC50 [1]: > 50 µM (not active)

SMILES: COc1ccc(CNCC(O)COc2ccc(C)cc2[N+](=O)[O-])cc1 (centres undefined)
- EC50 [2]: > 50 µM (active)

SMILES: COc1ccc(-c2noc(-c3ccc(Br)o3)n2)cc1OC
- EC50 [3]: 63 µM (not active)
- EC50 [4]: 64.1 µM (not active)
- EC50 [5]: 68.6 µM (not active)

SMILES: COc1ccc([N+](=O)[O-])cc1Nc1c2ccccc2nc2ccccc12
- IC50 [6]: > 80 µM (inactive)
- EC50 (HEK293 [7]): > 59.6 µM (inactive)
- AC50 [8]: 0.956 µM (active)
- EC50 (HEK293 [9]): > 59.6 µM (inactive)

SMILES: Cc1cc(C)cc(NCc2cc3c(cc2[N+](=O)[O-])OCO3)c1
- CC50 [10]: > 40 µM (active)
- IC50 (Protein Tat): > 100 µM (inconclusive)

SMILES: CCCC(=O)Nc1nc(C)c(C(C)=O)s1
- EC50 [11]: > 79.4 µM (not active)
- EC50 [12]: > 79.4 µM (inactive)
- EC50 [13]: 137 µM (not active)

SMILES: Cc1ccc(C)c(Cn2c(=O)n(-c3ccc(CC(=O)NCc4ccco4)cc3)c(=O)c3sccc32)c1
- IC50 (Estrogen receptor beta): > 50 µM (not active)

SMILES: Cc1ccc(C2=NN=C(NC(=O)C(F)(F)F)SC2)cc1
- IC50 [1]: > 50 µM (not active)

SMILES: COc1cc2c(cc1OC)-c1cc(NC3CCCCCCC3)nc(=O)n1CC2
- EC50 [14]: > 120 µM (not active)
- IC50 [15]: 7.99 µM (active)
- EC50 (HEK293 [7]): > 59.7 µM (inactive)
- EC50 [16]: 28.4 µM (active)
- EC50 [17]: 6.92 µM (active)
- EC50 (HEK293 [9]): > 59.7 µM (inactive)
- EC50 [18]: > 112 µM (not active)
- EC50 [19]: 0.18 µM (active)

SMILES: Cc1ccc(-c2ccc(/C=C(\C#N)C(N)=S)o2)c([N+](=O)[O-])c1
- EC50 [3]: > 79.4 µM (not active)
- EC50 [4]: > 79.4 µM (not active)
- EC50 [5]: > 79.4 µM (not active)

SMILES: Cc1ccc2nc(SCC(=O)NCc3cccs3)c(C#N)cc2c1
- AC50 (Cytochrome P450 1A2): 0.708 µM (inconclusive)
- EC50 [3]: 11.6 µM (not active)
- EC50 [4]: 19 µM (not active)
- AC50 (Cytochrome P450 2D6): 0.316 µM (inconclusive)
- EC50 [5]: 20.8 µM (not active)

SMILES: COc1ccc(N2C(=O)CC(N3CC=C(c4ccccc4)CC3)C2=O)cc1 (centres undefined)
- EC50 [2]: > 50 µM (active)

SMILES: Oc1ncnc2c1c(-c1ccccc1)cn2-c1ccc(F)cc1
- EC50 (HEK293 [7]): > 59.6 µM (inactive)
- EC50 (HEK293 [9]): > 59.6 µM (inactive)

SMILES: Cn1c(=O)c2c(ncn2CCCNC2=CC(C)(C)CC(=O)C2)n(C)c1=O
- IC50 (Estrogen receptor beta): > 50 µM (not active)

SMILES: CC(C)CNC(CC(=O)O)c1ccccc1 (centres undefined)
- EC50 [2]: > 50 µM (active)

SMILES: C/C(=C\C(=O)c1cccnc1)Nc1ccc(O)cc1
- IC50 (Protein Tat): 26.2 µM (inconclusive)
- IC50 [20]: 14.7 µM (active)
